Laboratory results from US8012979B2, “Compounds and their uses 707” (AstraZeneca AB, priority 2007, dated 2011).

Each compound was assayed against T1, human active recombinant p38α-6His tagged (Homo sapiens, UniProt Q16539) (assay: p38 Alpha Enzyme Assay (AlphaScreen, biotinylated-ATF2 substrate)). Conditions: pre-incubated 4 hours at 37° C., reaction initiated with ATP; 0.5 nM enzyme; read-out: p38 pIC50 (converted).
T1 construct: 6His
Assay type: biochemical

T1 sequence (Q16539 whole entry): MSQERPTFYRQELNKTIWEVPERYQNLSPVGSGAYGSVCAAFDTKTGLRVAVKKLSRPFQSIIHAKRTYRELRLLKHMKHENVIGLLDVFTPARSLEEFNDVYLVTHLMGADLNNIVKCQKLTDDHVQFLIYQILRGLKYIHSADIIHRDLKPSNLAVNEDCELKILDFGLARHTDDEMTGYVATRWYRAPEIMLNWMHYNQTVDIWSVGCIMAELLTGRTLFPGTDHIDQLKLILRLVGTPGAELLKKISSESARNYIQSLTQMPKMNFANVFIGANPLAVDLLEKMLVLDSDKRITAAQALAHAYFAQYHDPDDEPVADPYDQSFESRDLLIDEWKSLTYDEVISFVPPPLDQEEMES

Point of comparison: `Cc1ccc(C(=O)NC2CC2)cc1-c1ccc2c(=O)n(Cc3ccc(C(=O)NS(C)(=O)=O)cc3)cc(CN3CCCN(C)CC3)c2c1` [Example 114, N-Cyclopropyl-4-methyl-3-(4-((4-methyl-1,4-diazepan-1-yl)methyl)-2-(4-(methylsulfonylcarbamoyl)benzyl)-1-oxo-1,2-dihydroisoquinolin-6-yl)benzamide], IC50 0.251 nM. Against it:
- Cc1ccc(C(=O)NC2CC2)cc1-c1ccc2c(=O)n(CC3CC3)cc(CNCCN(C)C)c2c1 [Example 67, N-Cyclopropyl-3-(2-(cyclopropylmethyl)-4-((2-(dimethylamino)ethylamino)methyl)-1-oxo-1,2-dihydroisoquinolin-6-yl)-4-methylbenzamide] — 20-fold higher, 5.01 nM
- Cc1ccc(C(=O)NC2CC2)cc1-c1ccc2c(=O)n(CC3CC3)cc(CN3CCN[C@@H](C)C3)c2c1 [Example 63, (S)—N-Cyclopropyl-3-(2-(cyclopropylmethyl)-4-((3-methylpiperazin-1-yl)methyl)-1-oxo-1,2-dihydroisoquinolin-6-yl)-4-methylbenzamide] — 4-fold higher, 1 nM
- Cc1ccc(C(=O)NC2CC2)cc1-c1ccc2c(=O)n(CC3CC3)cc(C(=O)N3CC[C@H](N)C3)c2c1 [Example 43, (S)-3-(4-(3-Aminopyrrolidine-1-carbonyl)-2-(cyclopropylmethyl)-1-oxo-1,2-dihydroisoquinolin-6-yl)-N-cyclopropyl-4-methylbenzamide] — 20-fold higher, 5.01 nM
- Cc1c(F)cc(C(=O)NC2CC2)cc1-c1ccc2c(=O)n(CC3CC3)cc(CN3CCNC[C@H]3C)c2c1 [Example 86, (R)—N-Cyclopropyl-3-(2-(cyclopropylmethyl)-4-((2-methylpiperazin-1-yl)methyl)-1-oxo-1,2-dihydroisoquinolin-6-yl)-5-fluoro-4-methylbenzamide] — 3.2-fold lower, 0.0794 nM
- Cc1ccc(C(=O)NC2CC2)cc1-c1ccc2c(=O)n(CC3CC3)cc(C(=O)N3CCN(CCN(C)C)CC3)c2c1 [Example 46, N-Cyclopropyl-3-(2-(cyclopropylmethyl)-4-(4-(2-(dimethylamino)ethyl)piperazine-1-carbonyl)-1-oxo-1,2-dihydroisoquinolin-6-yl)-methylbenzamide] — 100-fold higher, 25.1 nM
- Cc1c(F)cc(C(=O)NC2CC2)cc1-c1ccc2c(=O)n(CC3CC3)cc(CN3CCN[C@H](C)C3)c2c1 [Example 107, (R)—N-Cyclopropyl-3-(2-(cyclopropylmethyl)-4-((3-methylpiperazin-1-yl)methyl)-1-oxo-1,2-dihydroisoquinolin-6-yl)-5-fluoro-4-methylbenzamide] — 3.2-fold higher, 0.794 nM
- Cc1c(F)cc(C(=O)NC2CC2)cc1-c1ccc2c(=O)n(CC3CC3)cc(CN3CCNC[C@H]3CO)c2c1 [Example 108, (S)—N-Cyclopropyl-3-(2-(cyclopropylmethyl)-4-((2-(hydroxymethyl)piperazin-1-yl)methyl)-1-oxo-1,2-dihydroisoquinolin-6-yl)-5-fluoro-4-methylbenzamide] — 4-fold lower, 0.0631 nM
- Cc1ccc(C(=O)NC2CC2)cc1-c1ccc2c(=O)n(Cc3ccc(C4CCNCC4)cc3)c(C)cc2c1 [Example 98, N-Cyclopropyl-4-methyl-3-(3-methyl-1-oxo-2-(4-(piperidin-4-yl)benzyl)-1,2-dihydroisoquinolin-6-yl)benzamide] — 10-fold higher, 2.51 nM
- Cc1ccc(C(=O)NC2CC2)cc1-c1ccc2c(=O)n(Cc3ccc(C(=O)NCCN4CCCC4)cc3)ccc2c1 [Example 22, N-Cyclopropyl-4-methyl-3-(1-oxo-2-(4-(2-(pyrrolidin-1-yl)ethylcarbamoyl)benzyl)-1,2-dihydroisoquinolin-6-yl)benzamide] — 3.2-fold higher, 0.794 nM
- Cc1ccc(C(=O)NC2CC2)cc1-c1ccc2c(=O)n(Cc3ccc(CN(C)C)cc3)cc(C)c2c1 [Example 95, N-Cyclopropyl-3-(2-(4-((dimethylamino)methyl)benzyl)-4-methyl-1-oxo-1,2-dihydroisoquinolin-6-yl)-4-methylbenzamide] — 10-fold higher, 2.51 nM
- CCC(CC)Cn1ccc2cc(-c3cc(C(=O)NC4CC4)ccc3C)ccc2c1=O [Example 123, N-Cyclopropyl-3-(2-(2-ethylbutyl)-1-oxo-1,2-dihydroisoquinolin-6-yl)-4-methylbenzamide] — 13-fold higher, 3.16 nM
- Cc1ccc(C(=O)NC2CC2)cc1-c1ccc2c(=O)n(Cc3ccccc3)cc(CCCN(C)C)c2c1 [Example 99, 3-(2-Benzyl-4-(3-(dimethylamino)propyl)-1-oxo-1,2-dihydroisoquinolin-6-yl)-N-cyclopropyl-4-methylbenzamide] — 1.6-fold higher, 0.398 nM
- Cc1ccc(C(=O)NC2CC2)cc1-c1ccc2c(=O)n(CC3CC3)cc(C(=O)NC3CCNCC3)c2c1 [Example 41, 6-(5-(Cyclopropylcarbamoyl)-2-methylphenyl)-2-(cyclopropylmethyl)-1-oxo-N-(piperidin-4-yl)-1,2-dihydroisoquinoline-4-carboxamide] — 6.3-fold higher, 1.58 nM
- Cc1ccc(C(=O)NC2CC2)cc1-c1ccc2c(=O)n(CC3CC3)cc(CN3CCCN(C(C)C)CC3)c2c1 [Example 73, N-Cyclopropyl-3-(2-(cyclopropylmethyl)-4-((4-isopropyl-1,4-diazepan-1-yl)methyl)-1-oxo-1,2-dihydroisoquinolin-6-yl)-4-methylbenzamide] — 5-fold higher, 1.26 nM
- Cc1ccc(C(=O)NC2CC2)cc1-c1ccc2c(=O)n(CC3CCNCC3)ccc2c1 [Example 125, N-Cyclopropyl-4-methyl-3-(1-oxo-2-piperidin-4-ylmethyl-1,2-dihydro-isoquinolin-6-yl)-benzamide] — 250-fold higher, 63.1 nM
- Cc1ccc(C(=O)NC2CC2)cc1-c1ccc2c(=O)n(Cc3ccncc3)cc(C(=O)N3CCC(N4CCCC4)CC3)c2c1 [Example 54, N-Cyclopropyl-4-methyl-3-(1-oxo-2-(pyridin-4-ylmethyl)-4-(4-(pyrrolidin-1-yl)piperidine-1-carbonyl)-1,2-dihydroisoquinolin-6-yl)benzamide] — 100-fold higher, 25.1 nM
- Cc1ccc(C(=O)NC2CC2)cc1-c1ccc2c(=O)n(Cc3ccc(C(=O)NCCN(C)C)cc3)ccc2c1 [Example 19, N-Cyclopropyl-3-(2-(4-(2-(dimethylamino)ethylcarbamoyl)benzyl)-1-oxo-1,2-dihydroisoquinolin-6-yl)-4-methylbenzamide] — 4-fold higher, 1 nM
- CCN1CCC(CNCc2cn(CC3CC3)c(=O)c3ccc(-c4cc(C(=O)NC5CC5)cc(F)c4C)cc23)CC1 [Example 91, N-Cyclopropyl-3-(2-(cyclopropylmethyl)-4-(((1-ethylpiperidin-4-yl)methylamino)methyl)-1-oxo-1,2-dihydroisoquinolin-6-yl)-5-fluoro-4-methylbenzamide] — 32-fold higher, 7.94 nM
- Cc1ccc(C(=O)NC2CC2)cc1-c1ccc2c(=O)n(CC3CC3)cc(C(=O)NCCN(C)C)c2c1 [Example 40, 6-(5-(Cyclopropylcarbamoyl)-2-methylphenyl)-2-(cyclopropylmethyl)-N-(2-(dimethylamino)ethyl)-1-oxo-1,2-dihydroisoquinoline-4-carboxamide] — 16-fold higher, 3.98 nM
- Cc1ccc(C(=O)NC2CC2)cc1-c1ccc2c(=O)n(Cc3ccncc3)cc(C(=O)N(C)C3CCN(C)CC3)c2c1 [Example 55, 6-(5-(Cyclopropylcarbamoyl)-2-methylphenyl)-N-methyl-N-(1-methylpiperidin-4-yl)-1-oxo-2-(pyridin-4-ylmethyl)-1,2-dihydroisoquinoline-4-carboxamide] — 130-fold higher, 31.6 nM
- Cc1c(F)cc(C(=O)NC2CC2)cc1-c1ccc2c(=O)n(CC3CC3)cc(CN[C@@H]3CCNC3)c2c1 [Example 110, (R)—N-Cyclopropyl-3-(2-(cyclopropylmethyl)-1-oxo-4-((pyrrolidin-3-ylamino)methyl)-1,2-dihydroisoquinolin-6-yl)-5-fluoro-4-methylbenzamide] — 4-fold higher, 1 nM
- Cc1ccc(C(=O)NC2CC2)cc1-c1ccc2c(=O)n(CC3CC3)cc(CNC3CCN(C)CC3)c2c1 [Example 65, N-Cyclopropyl-3-(2-(cyclopropylmethyl)-4-((1-methylpiperidin-4-ylamino)methyl)-1-oxo-1,2-dihydroisoquinolin-6-yl)-4-methylbenzamide] — 32-fold higher, 7.94 nM
- Cc1c(F)cc(C(=O)NC2CC2)cc1-c1ccc2c(=O)n(CC3CC3)cc(CN3C[C@@H](C)N[C@@H](C)C3)c2c1 [Example 80, N-Cyclopropyl-3-(2-(cyclopropylmethyl)-4-(((3S,5R)-3,5-dimethylpiperazin-1-yl)methyl)-1-oxo-1,2-dihydroisoquinolin-6-yl)-5-fluoro-4-methylbenzamide] — within 1.5-fold, 0.316 nM
- Cc1ccc(C(=O)NC2CC2)cc1-c1ccc2c(=O)n(CC3CC3)cc(C(=O)N3CC[C@@H](N)C3)c2c1 [Example 37, (R)-3-(4-(3-Aminopyrrolidine-1-carbonyl)-2-(cyclopropylmethyl)-1-oxo-1,2-dihydroisoquinolin-6-yl)-N-cyclopropyl-4-methylbenzamide] — 16-fold higher, 3.98 nM
- Cc1ccc(C(=O)NC2CC2)cc1-c1ccc2c(=O)[nH]ccc2c1 [Example 11, N-Cyclopropyl-4-methyl-3-(1-oxo-1,2-dihydro-isoquinolin-6-yl)-benzamide] — 100-fold higher, 25.1 nM
- Cc1ccc(C(=O)NC2CC2)cc1-c1ccc2c(=O)n(CC3CC3)cc(C(=O)N3CCC(N)CC3)c2c1 [Example 42, 3-(4-(4-Aminopiperidine-1-carbonyl)-2-(cyclopropylmethyl)-1-oxo-1,2-dihydroisoquinolin-6-yl)-N-cyclopropyl-4-methylbenzamide] — 5-fold higher, 1.26 nM
- Cc1ccc(C(=O)NC2CC2)cc1-c1ccc2c(=O)n(CC3CC3)cc(CN3CCC(N)CC3)c2c1 [Example 66, 3-(4-((4-Aminopiperidin-1-yl)methyl)-2-(cyclopropylmethyl)-1-oxo-1,2-dihydroisoquinolin-6-yl)-N-cyclopropyl-4-methylbenzamide] — 1.6-fold lower, 0.158 nM
- Cc1c(F)cc(C(=O)NC2CC2)cc1-c1ccc2c(=O)n(CC3CC3)cc(CN3CCN[C@H](CO)C3)c2c1 [Example 102, (S)—N-Cyclopropyl-3-(2-(cyclopropylmethyl)-4-((3-(hydroxymethyl)piperazin-1-yl)methyl)-1-oxo-1,2-dihydroisoquinolin-6-yl)-5-fluoro-4-methylbenzamide] — 5-fold lower, 0.0501 nM
- Cc1c(F)cc(C(=O)NC2CC2)cc1-c1ccc2c(=O)n(Cc3ccc(S(C)(=O)=O)cc3)cc(CN3CCN(C)CC3)c2c1 [Example 112, N-Cyclopropyl-3-fluoro-4-methyl-5-(4-((4-methylpiperazin-1-yl)methyl)-2-(4-(methylsulfonyl)benzyl)-1-oxo-1,2-dihydroisoquinolin-6-yl)benzamide] — 2-fold lower, 0.126 nM
